Reference: patent US10344071B2, “Identification of novel anti-fibrotic peptide in C-terminal region of the MET receptor tyrosine kinase” (MUSC Foundation for Research Development, priority 2015, dated 2019)

Assays:
Format in all cases: cell-based, human
[1] = system: alveolar epithelial cells (AEC, A549); assay: Caspase 3 Assay, FasL- and cisplatin-induced apoptosis; settings: for apoptosis, level of active caspase 3: AEC incubated 24 h with the inducer; for FasL-induced apoptosis (caspase 3 activity) / cisplatin-induced apoptosis (caspase 3 activity): AEC, 24 hours, peptide treatment, p<0.01
Procedure: FIG. 7 depicts alveolar epithelial cells (AEC) transfected with MET WT but not with MET D1398G are protected from FasL- and cisplatin-induced apoptosis. Transfected AEC were incubated with or without FasL or cisplatin for 24 hours, collected with lysis buffer and analyzed by Caspase 3 Assay as detailed in Materials and Methods.
(§1) FIG. 17A depicts 1403 and 1404 peptides inhibit collagen in TGFβ-stimulated LF. Cells were incubated with and without TGFβ (5 ng/ml), 1403, and 1404 peptides (1 μg/ml) or scrambled peptide (Control, Co) for 24 h and analyzed by immunoblotting using anti-collagen type I antibody. FIG. 17B depicts 1403 and 1404 but not M10 protect AEC from FasL- and cisplatin-induced apoptosis. AEC were incubated with or without 1403, 1404, or scrambled (Control) peptides, FasL, and cisplatin for 24 hours and analyzed by Caspase 3 Assay from Abcam.
Caspase 3 Assay Kit (Abcam, Cambridge, Mass.) was used to detect apoptosis in cultured cells. The cells were plated on 100 mm plates, transfected with MET WT or D1398G, and treated with or without FasL and cisplatin for 24 h. Cell lysates were collected in accordance to with the manufacturer's instructions, transferred to a 96-well plate, and incubated with DEVD-p-NA substrate at 37° C. for 2 hours followed by reading the absorbance at 405 nm on a spectrophotometer.
A cell-protective effect of HGF and MET have been reported in AEC in numerous studies (Crestani, et al., Proc Am Thorac Soc, 2012, 9(3):158-63 and Gazdhar, et al., Hum Gene Ther, 2013, 24(1):105-16). To investigate if the D1398G mutation interferes with anti-apoptotic effects of MET in AEC, apoptosis of AEC with FasL and cisplatin and measured caspase 3 activity in cell lysates was induced. […] In contrast, AEC transfected with the MET D1398G mutant were not protected from FasL- and cisplatin-induced apoptosis.
To investigate if the 1403 and 1404 peptides have anti-apoptotic effects in AEC, apoptosis of AEC was induced with FasL and cisplatin and measured caspase 3 activity in cell lysates. […] In contrast, AEC treated with scrambled peptide were not protected from FasL- and cisplatin-induced apoptosis (FIG. 17B).

[2] = system: caspase-3; assay: Cisplatin-induced cleaved caspase-3, Western blot; settings: for cleaved or active caspase-3 by Western blot: 50 μM for 24 h
Procedure: FIG. 5, comprising FIG. 5A and FIG. 5B, depicts effects of cisplatin in lung fibroblasts (LF) and alveolar epithelial cells (AEC) transfected with MET WT and MET D1398G. FIG. 5A depicts transfected cells were incubated with or without cisplatin for 24 hours. The cells were collected with lysis buffer and analyzed by Western blot with indicated antibodies. FIG. 5B depicts densitometric analysis of uncleaved MET detected by C12 antibody. Values are the mean and SD from three independent experiments.

[3] = system: fetal lung fibroblasts (MRC5 immortal cell line); assay: TGFβ-induced collagen type I, immunoblot; settings: peptide 1 μg/ml, TGFβ 5 ng/ml, 24 h
Procedure: FIG. 11, comprising FIG. 11A and FIG. 11B, depicts the effect of M10 on TGFβ-induced collagen type 1. FIG. 11A depicts MRC5 cells, normal lung fibroblasts, and normal skin fibroblasts were incubated with or without M10, scrambled peptide (Scr), and TGFβ for 48 hours in serum-free medium. Cell extracts were immunoblotted with anticollagen type I and anti-β-actin antibodies. FIG. 11B depicts densitometric analysis of collagen type I immunoblots from 2 independent experiments.
as §1, with “FIG. 17B depicts 1403 and 1404 but not M10 protect AEC from FasL- and cisplatin-induced apoptosis.” left out
Cells were collected and analyzed by immunoblotting as previously described (Bogatkevich et al., J Biol Chem. 2001, 276:45184-45192; Bogatkevich et al., Arthritis Rheum. 2007, 56:3468-3477). The phosphorylation of Smad2 was analyzed by Western blot using anti-phospho-Smad2 antibody in accordance with the manufacturer's instructions (Cell Signaling Technology). […] Total amount of Smad2 was evaluated by re-blotting with anti-Smad2 polyclonal antibody. […]

Molecule | apoptosis, level of active caspase 3 [1] | cleaved caspase by Western blot ([2]; AEC and LF, 100 μM) | cleaved or active caspase-3 by Western blot ([2]; AEC) | cleaved or active caspase-3 by Western blot ([2]; LF) | FasL-induced apoptosis (caspase 3 activity) [1] | cisplatin-induced apoptosis (caspase 3 activity) [1] | levels of TGFβ-induced collagen [3]
N.N.[Cl][Pt][Cl] [cisplatin] | resulted in apoptosis reflected by an increase in the level of active caspase 3 | yielded cleaved caspase not only in AEC but also in LF | detectable | not in LF | – | – | –
DDEVDTRPAS (1403 Peptide) [compound 1403, M5 peptide with added caspase-3 cleavage sites and an additional N-terminal aspartic acid] | – | – | – | – | significantly reduced apoptosis | significantly reduced apoptosis | significantly reduced
DEVDTRPAS (1404 Peptide) [compound 1404, M5 peptide with added caspase-3 cleavage sites] | – | – | – | – | significantly reduced apoptosis | significantly reduced apoptosis | significantly reduced
FasL: inducer of apoptosis in AEC (protein, UniProt P48023 130-281, looked up) Tumor necrosis factor ligand …: QIGHPSPPPEKKELRKVAHLTGKSNSRSMPLEWEDTYGIVLLSGVKYKKGGLVINETGLYFVYSKVYFRGQSCNNLPLSHKVYMRNSKYPQDLVMMEGKMMSYCTTGQMWARSSYLGAVFNLTSADHLYVNVSELSLVNFEESQTFFGLYKL | resulted in apoptosis reflected by an increase in the level of active caspase 3 | – | – | – | – | – | –
